Assay results from US9227923B2, “Pesticidal carboxamides” (Bayer Intellectual Property GmbH, priority 2009, dated 2016).

What was measured:
[1] = tested on: Cucurbit Leaf Beetle (Aulacophora Femoralis); test: Test against cucurbit leaf beetle (Aulacophora femoralis), leaf dip; type: in vivo; conditions: active compound concentration of 100 ppm, second instar larvae, after 7 days
Experimental: (§1) Solvent: 3 parts by weight of dimethylformamide
(§2) Emulsifier: 1 part by weight of polyoxyethylene alkyl phenyl ether
Leaves of cucumber were immersed in the test solution at the appropriate concentration, and the leaves were dried in air. The leaves were then put in a plastic cup containing sterilized black soil and five Aulacophora femoralis at second instar larvae were released in the cup. The cups were placed in a temperature-controlled chamber at 25° C. After 7 days, the number of dead larvae was counted, and thus the insecticidal activity was calculated. An insecticidal activity of 100% means that all larvae were killed, whereas an insecticidal activity of 0% means that no larva was killed.

[2] = tested on: Tobacco Cutworm (Spodoptera litura) Larvae; test: Test against tobacco cutworm (Spodoptera litura) larvae, leaf dip; type: in vivo; conditions: active compound concentration of 100 ppm, third instar larvae, after 7 days; for pest or weed control at 100 ppm: Spodoptera litura, foliar, 168 h, read-out: insecticidal activity
Experimental: as §1, §2
Leaves of sweet potato were immersed in the test solution at the appropriate concentration, and the leaves were dried in air. The leaves were then placed in a petri dish having a diameter of 9 cm, and ten Spodoptera litura at third instar larvae were released therein. The petri dishes were placed in a temperature-controlled chamber at 25° C. After 2 days and 4 days more sweet potato leaves were added. After 7 days, the number of dead larvae was counted to calculate the insecticidal activity. An insecticidal activity of 100% means that all larvae were killed, whereas an insecticidal activity of 0% means that no larva was killed.

`N#Cc1ccc(C(=O)Nc2c(Br)cc(C(F)(C(F)(F)F)C(F)(F)F)cc2Br)cc1` [Compound I-26] gave an insecticidal activity [1] of 100% and an insecticidal activity [2] of 100%.

For `CCc1cc(C(F)(C(F)(F)F)C(F)(F)F)cc(C)c1NC(=O)c1ccc(CNC(=O)c2ccccc2F)cc1` [Compound 5-34], the insecticidal activity [1] was 100% and the insecticidal activity [2] was 100%.

`CCC(=O)NCc1ccc(C(=O)Nc2c(C)cc(C(F)(C(F)(F)F)C(F)(F)F)cc2C)c(F)c1` [Compound 5-22] showed an insecticidal activity [1] of 100% and an insecticidal activity [2] of 100%.

`CCC(=O)NCc1ccc(C(=O)Nc2c(Cl)cc(C(F)(C(F)(F)F)C(F)(F)C(F)(F)F)cc2Cl)cc1` (stereo not shown) [Compound 5-323] was tested, and the insecticidal activity [1] was 100% and the insecticidal activity [2] was 100%.

Work on `CCC(=O)NCc1ccc(C(=O)Nc2c(C)cc(C(F)(C(F)(F)F)C(F)(F)F)cc2CC)c(F)c1` [Compound 5-45] yielded an insecticidal activity [1] of 100% and an insecticidal activity [2] of 100%.

Work on `CCc1cc(C(F)(C(F)(F)F)C(F)(F)C(F)(F)F)cc(C)c1NC(=O)c1ccc(CNC(=O)CC(F)(F)F)c(Br)c1` (stereo not shown) [Compound 5-161] yielded an insecticidal activity [1] of 100% and an insecticidal activity [2] of 100%.

`CCc1cc(C(F)(C(F)(F)F)C(F)(F)C(F)(F)F)cc(C)c1NC(=O)c1ccc(CNC(C)=O)c(F)c1F` (stereo not shown) [Compound 5-201] was tested, and the insecticidal activity [1] was 100% and the insecticidal activity [2] was 100%.

`CCc1cc(C(F)(C(F)(F)F)C(F)(F)F)cc(C)c1NC(=O)c1ccc(CNC(=O)CC(F)(F)F)c2ccccc12` [Compound 6-6] showed an insecticidal activity [1] of 100% and an insecticidal activity [2] of 100%.

Compound `CCC(=O)NCc1ccc(C(=O)Nc2c(C)cc(C(F)(C(F)(F)F)C(F)(F)C(F)(F)F)cc2CC)c(F)c1F` (stereo not shown) [Compound 5-202] has an insecticidal activity [1] of 100% and an insecticidal activity [2] of 100%.

For `CCc1cc(C(F)(C(F)(F)F)C(F)(F)F)cc(C)c1NC(=O)c1cc(F)c(CNC(=O)c2cccnc2Cl)cc1F` [Compound 5-183], the insecticidal activity [1] was 100% and the insecticidal activity [2] was 100%.

`CCc1cc(C(F)(C(F)(F)F)C(F)(F)C(F)(F)F)cc(C)c1NC(=O)c1ccc(CNC(=O)C2CC2)c(F)c1F` (stereo not shown) [Compound 5-203] showed an insecticidal activity [1] of 100% and an insecticidal activity [2] of 100%.

Compound `Cc1cc(C(F)(C(F)(F)F)C(F)(F)F)cc(C)c1NC(=O)c1ccc(CNC(=O)CC2CC2)cc1` [Compound 5-8] has an insecticidal activity [1] of 100% and an insecticidal activity [2] of 100%.

For `CCc1cc(C(F)(C(F)(F)F)C(F)(F)F)cc(C)c1NC(=O)c1ccc(CNC(C)=O)cn1` [Compound 7-2], the insecticidal activity [1] was 100% and the insecticidal activity [2] was 100%.

For `CCc1cc(C(F)(C(F)(F)F)C(F)(F)F)cc(C)c1NC(=O)c1ccc(CNC(=O)c2cccnc2F)c2ccccc12` [Compound 6-7], the insecticidal activity [1] was 100% and the insecticidal activity [2] was 100%.

Work on `CCC(=O)NCc1ccc(C(=O)Nc2c(C)cc(C(F)(C(F)(F)F)C(F)(F)F)cc2CC)nc1` [Compound 7-3] yielded an insecticidal activity [1] of 100% and an insecticidal activity [2] of 100%.

`CC(=O)NCc1ccc(C(=O)Nc2c(C)cc(C(F)(C(F)(F)F)C(F)(F)F)cc2C)c(F)c1` [Compound 5-21] showed an insecticidal activity [1] of 100% and an insecticidal activity [2] of 100%.

For `CCc1cc(C(F)(C(F)(F)F)C(F)(F)F)cc(C)c1NC(=O)c1ccc(CNC(=O)CS(C)(=O)=O)c(Br)c1` [Compound 5-178], the insecticidal activity [1] was 100% and the insecticidal activity [2] was 100%.

Compound `O=C(Nc1c(Cl)cc(C(F)(C(F)(F)F)C(F)(F)F)cc1Cl)c1ccc(CNC(=O)C2CC2)c(Cl)c1` [Compound 5-231] has an insecticidal activity [1] of 100% and an insecticidal activity [2] of 100%.

`CCc1cc(C(F)(C(F)(F)F)C(F)(F)F)cc(C)c1NC(=O)c1ccc(C(C)NC(=O)CC(F)(F)F)cc1` (stereo not shown) [Compound 9-6] showed an insecticidal activity [1] of 100% and an insecticidal activity [2] of 100%.

With `CC(=O)NCc1ccc(C(=O)Nc2c(C)cc(C(F)(C(F)(F)F)C(F)(F)C(F)(F)F)cc2C)cc1Br` (stereo not shown) [Compound 5-211] the insecticidal activity [1] was 100% and the insecticidal activity [2] was 100%.

In the case of `CCc1cc(C(F)(C(F)(F)F)C(F)(F)F)cc(C)c1NC(=O)c1ccc(-n2cncn2)nc1` [Compound 4-2], the insecticidal activity [1] is reported as 100% and the insecticidal activity [2] is reported as 100%.

For `N#Cc1ccc(C(=O)Nc2c(Cl)cc(C(F)(C(F)(F)F)C(F)(F)F)cc2Cl)cc1` [Compound I-24], the insecticidal activity [1] was 100% and the insecticidal activity [2] was 100%.

With `O=C(Nc1c(Cl)cc(C(F)(C(F)(F)F)C(F)(F)C(F)(F)F)cc1Cl)c1ccc(CNC(=O)C2CC2)cc1` (stereo not shown) [Compound 5-326] the insecticidal activity [1] was 100% and the insecticidal activity [2] was 100%.

`CCc1cc(C(F)(C(F)(F)F)C(F)(F)F)cc(C)c1NC(=O)c1ccc(-n2cncn2)c2ccccc12` [Compound 2-2] gave an insecticidal activity [1] of 100% and an insecticidal activity [2] of 100%.

`CCC(=O)NCc1ccc(C(=O)Nc2c(C)cc(C(F)(C(F)(F)F)C(F)(F)F)cc2CC)cc1C` [Compound 5-100] was tested, and the insecticidal activity [1] was 100% and the insecticidal activity [2] was 100%.

`CCc1cc(C(F)(C(F)(F)F)C(F)(F)F)cc(C)c1NC(=O)c1ccc(CNC(=O)C2CC2)c(Cl)c1` [Compound 5-79] was tested, and the insecticidal activity [1] was 100% and the insecticidal activity [2] was 100%.

Compound `CCC(=O)NCc1cc(F)c(C(=O)Nc2c(C)cc(C(F)(C(F)(F)F)C(F)(F)F)cc2CC)cc1F` [Compound 5-59] has an insecticidal activity [1] of 100% and an insecticidal activity [2] of 100%.

`O=C(CC(F)(F)F)NCc1ccc(C(=O)Nc2c(Cl)cc(C(F)(C(F)(F)F)C(F)(F)C(F)(F)F)cc2Cl)cc1` (stereo not shown) [Compound 5-324] was tested, and the insecticidal activity [1] was 100% and the insecticidal activity [2] was 100%.

For `CCC(=O)NCc1ccc(C(=O)Nc2c(C)cc(C(F)(C(F)(F)F)C(F)(F)C(F)(F)F)cc2CC)cc1F` (stereo not shown) [Compound 5-145], the insecticidal activity [1] was 100% and the insecticidal activity [2] was 100%.

`O=C(CC(F)(F)F)NCc1ccc(C(=O)Nc2c(Cl)cc(C(F)(C(F)(F)F)C(F)(F)F)cc2Cl)cc1` [Compound 5-226] showed an insecticidal activity [1] of 100%.

`CCc1cc(C(F)(C(F)(F)F)C(F)(F)C(F)(F)F)cc(C)c1NC(=O)c1ccc(CNC(=O)CC2CC2)c(F)c1F` (stereo not shown) [Compound 5-204] was tested, and the insecticidal activity [1] was 100% and the insecticidal activity [2] was 100%.

In the case of `CC(=O)NCc1ccc(C(=O)Nc2c(Cl)cc(C(F)(C(F)(F)F)C(F)(F)F)cc2Cl)cc1Cl` [Compound 5-229, 4-(acetamidemethyl)-3-chloro-N-[2,6-dichloro-4-(1,1,1,2,3,3,3-heptafluoropropan-2-yl)phenyl]benzamide], the pest or weed control at 100 ppm ([1]; Aulacophora, foliar, 168 h, read-out: insecticidal activity) is reported as 100% and the pest or weed control at 100 ppm [2] is reported as 100%.

With `CCc1cc(C(F)(C(F)(F)F)C(F)(F)C(F)(F)F)cc(C)c1NC(=O)c1ccc(CNC(=O)C2CC2)c(Cl)c1` (stereo not shown) [Compound 5-152] the insecticidal activity [1] was 100% and the insecticidal activity [2] was 100%.

In the case of `CCc1cc(C(F)(C(F)(F)F)C(F)(F)C(F)(F)F)cc(C)c1NC(=O)c1ccc(CNC(C)=O)c(F)c1` (stereo not shown) [Compound 5-144], the insecticidal activity [1] is reported as 100% and the insecticidal activity [2] is reported as 100%.

`CCc1cc(C(F)(C(F)(F)F)C(F)(F)F)cc(C)c1NC(=O)c1ccc(CNS(C)(=O)=O)c(Br)c1` [Compound 5-96] gave an insecticidal activity [1] of 100% and an insecticidal activity [2] of 100%.

Compound `CCC(=O)NCc1ccc(C(=O)Nc2c(C)cc(C(F)(C(F)(F)F)C(F)(F)C(F)(F)F)cc2C)cc1Br` (stereo not shown) [Compound 5-212] has an insecticidal activity [1] of 100% and an insecticidal activity [2] of 100%.

`CCc1cc(C(F)(C(F)(F)F)C(F)(F)F)cc(C)c1NC(=O)c1ccc(CNC(C)=O)cc1Cl` [Compound 5-65] showed an insecticidal activity [1] of 100%.

For `CCc1cc(C(F)(C(F)(F)F)C(F)(F)C(F)(F)F)cc(C)c1NC(=O)c1ccc(CNC(=O)CC(F)(F)F)c(F)c1F` (stereo not shown) [Compound 5-205], the insecticidal activity [1] was 100% and the insecticidal activity [2] was 100%.

With `Cc1cc(C(F)(C(F)(F)F)C(F)(F)F)cc(C)c1NC(=O)c1ccc(-n2cncn2)cc1Cl` [Compound 1-5] the insecticidal activity [1] was 100%.

For `CCC(=O)NCc1ccc(C(=O)Nc2c(C)cc(C(F)(C(F)(F)F)C(F)(F)C(F)(F)F)cc2C)cc1` (stereo not shown) [Compound 5-127], the insecticidal activity [1] was 100%.

Compound `CCc1cc(C(F)(C(F)(F)F)C(F)(F)F)cc(C)c1NC(=O)c1ccc(CNC(C)=O)c(C)c1` [Compound 5-99] has an insecticidal activity [2] of 100%.

`CCc1cc(C(F)(C(F)(F)F)C(F)(F)F)cc(C)c1NC(=O)c1ccc2c(c1)CCC2NC(C)=O` (stereo not shown) [Compound 10-2, 1-acetamide-N-[2-ethyl-4-(1,1,1,2,3,3,3-heptafluoropropan-2-yl)-6-methylphenyl]indane-5-carboxamide] was tested, and the pest or weed control at 100 ppm [2] was 100%.

`CCc1cc(C(F)(C(F)(F)F)C(F)(F)F)cc(C)c1NC(=O)c1ccc(-n2cncn2)c(CNC(=O)OC)c1` [Compound 12-5] gave an insecticidal activity [2] of 100%.

`CCc1cc(C(F)(C(F)(F)F)C(F)(F)F)cc(C)c1NC(=O)c1ccc(CNC(=O)CC(F)(F)F)c(F)c1F` [Compound 5-55] gave an insecticidal activity [2] of 100%.

`CCc1cc(C(F)(C(F)(F)F)C(F)(F)F)cc(C)c1NC(=O)c1ccc(CNC(C)=O)c(C(F)(F)F)c1` [Compound 5-106] was tested, and the insecticidal activity [2] was 100%.

Compound `CCc1cc(C(F)(C(F)(F)F)C(F)(F)F)cc(C)c1NC(=O)c1ccc(CNC(=O)C(F)(F)F)c(Br)c1` [Compound 5-349] has an insecticidal activity [2] of 100%.
